Measurements as given in patent US6287859A, “Identification, functional expression and chromosal localization of a sustained human proton-gated cation channel” (priority 1999, dated 2001).
“Also recorded” adds a separate entry of the source. Where two headings read alike, the source gives them in different places.

How the values were obtained:
[1] = molecular target: T1, rASIC1A channel (Rattus norvegicus, UniProt P55926); experiment: Proton-activated rASIC1A current in Xenopus oocytes (voltage clamp and outside-out patch); format: cell-based
T1 construct: cDNA isolated from rat brain codes for a protein of 526 amino acids; expressed in transfected cells; host or cells: Xenopus laevis oocytes injected with cRNA
T1 sequence (P55926 1-526): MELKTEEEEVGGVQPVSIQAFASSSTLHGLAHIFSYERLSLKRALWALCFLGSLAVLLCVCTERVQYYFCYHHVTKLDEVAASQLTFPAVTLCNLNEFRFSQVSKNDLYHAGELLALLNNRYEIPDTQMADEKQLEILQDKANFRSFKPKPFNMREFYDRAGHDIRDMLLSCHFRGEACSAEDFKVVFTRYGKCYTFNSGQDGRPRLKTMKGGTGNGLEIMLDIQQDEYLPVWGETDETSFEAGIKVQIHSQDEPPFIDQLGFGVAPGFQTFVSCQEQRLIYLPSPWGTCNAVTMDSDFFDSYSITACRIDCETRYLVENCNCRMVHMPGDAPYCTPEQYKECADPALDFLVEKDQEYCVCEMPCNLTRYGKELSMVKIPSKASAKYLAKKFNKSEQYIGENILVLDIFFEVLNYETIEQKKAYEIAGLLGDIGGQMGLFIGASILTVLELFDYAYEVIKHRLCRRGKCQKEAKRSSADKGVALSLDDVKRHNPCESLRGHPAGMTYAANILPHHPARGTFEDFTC
Method: 0.25 ng of cRNA was injected into the Xenopus laevis oocytes and the recording microelectrodes for the imposed voltage and for the patch-clamp were installed two days after the injection. The bath solutions for the outside-out patch recordings and the pipettes for the outside-out patch and total cells recordings contained: 140 mM KCl (or NMDG), 2 mM MgCl2, 5 mM EGTA, 10 mM Hepes, pH 7.4 (with KOH). The pipettes for the outside-out patch recordings and the bath solutions for the outside-out patch and total cells recordings contained: 140 mM NaCl (or LiCl or NMDGCl), 2 mM MgCl2, 1.8 mM CaCl2, 10 mM Hepes, pH 7.4 (adjusted with HCl, NaOH, LiOH or TMAOH). The intracellular acidification of the oocytes was implemented by injecting […] of the internal solution at pH 2 or by perfusion and withdrawal of a bath medium containing 20 mM NH4 Cl. […] The data were sampled at 2 kHz and filtered at 500 Hz for the analysis (Logiciel Biopatch).

[2] = molecular target: T2, hASIC3 (Homo sapiens, UniProt Q9UHC3); experiment: H+-gated hASIC3 whole-cell current in transfected COS cells; format: cell-based
T2 construct: expressed in transfected cells; host or cells: COS cells (DEAE-Dextran, hASIC3-PCI with CD8 marker)
T2 sequence (Q9UHC3 1-531): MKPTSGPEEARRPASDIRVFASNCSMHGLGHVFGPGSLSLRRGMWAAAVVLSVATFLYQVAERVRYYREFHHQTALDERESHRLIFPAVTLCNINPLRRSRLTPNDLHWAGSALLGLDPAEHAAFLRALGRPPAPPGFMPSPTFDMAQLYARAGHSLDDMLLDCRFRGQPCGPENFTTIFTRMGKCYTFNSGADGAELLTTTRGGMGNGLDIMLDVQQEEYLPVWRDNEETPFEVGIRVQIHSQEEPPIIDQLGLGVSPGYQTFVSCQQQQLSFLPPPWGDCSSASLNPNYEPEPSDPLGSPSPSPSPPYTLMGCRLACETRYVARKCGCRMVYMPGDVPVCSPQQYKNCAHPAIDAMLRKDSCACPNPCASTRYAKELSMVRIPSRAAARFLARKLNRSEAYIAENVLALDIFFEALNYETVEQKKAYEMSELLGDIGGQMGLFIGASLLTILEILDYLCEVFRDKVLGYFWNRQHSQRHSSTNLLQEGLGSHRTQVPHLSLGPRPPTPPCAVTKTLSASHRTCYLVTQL
Text: (§1) The vector containing the hASIC3 coding sequence was linearized with NotI and blunt ended with T4 DNA polymerase. After inactivation of the T4 DNA polymerase, the hASIC3 coding sequence was excised with EcoRI and subsequently subcloned into the EcoRI/SalI (blunt) digested PCI expression vector (Promega). COS cells, at a density of 20.000 cells per 35 mm diameter petri dish, were transfected with a mix of CD8 and hASIC3-PCI (1:5) using the DEAE-Dextran method. Cells were used for electrophysiological measurements one to three days after transfection. Successfully transfected cells were recognised by their ability to fix CD8-antibody-coated beads. Ion currents were recorded using either the whole cell or outside-out patch-clamp technique. The pipette solution contained (in mM): KCl 120, NaCl 30, MgCl2 2, EGTA 5, HEPES 10 (pH 7.2). The bath solution contained in mM: NaCl 140, KCl 5, MgCl2 2, CaCl2 2, HEPES 10 (pH 7.3). Changes in extracellular pH were induced by opening one out of six outlets of a microperfusion system in front of the cell or patch. Test solutions having a pH of less then 6 were buffered with 10 mM MES rather than HEPES but were identical to the control solution in all other respects. Experiments were carried out at room temperature (20-24° C.).

[3] = molecular target: T2, hASIC3; experiment: hASIC3 single channel currents in outside-out patches from transfected COS cells; format: cell-based; details: 100 μM, outside-out patch, -60 mV, resting pH 7.3
Text: as §1

[4] = system: proton-activated cationic channels of sensory neurons; details: refs [18], [19]; cited from earlier work
[5] = system: perception of acid taste; details: ref [2]; cited from earlier work
[6] = H+-activated current, pH change from pH 7.4 to pH 6, -70 mV, oocytes, outside-out patch at 0 mV, read-out: Kd, reversible block of the rASIC1A channel

SMILES | Effect on the sustained hASIC3 current ([2]; COS cells) | Effect on the inflowing current activated by H+ in sensory neurons [4] | Kd [1, 6] [µM] | also measured
N=C(N)NC(=O)c1nc(Cl)c(N)nc1N [amiloride] | virtually not affected | inhibited | – | Kd [1]: 10 µM; IC50 ([2]; cells clamped at -60 mV, currents as fraction of mean current in absence of drug, read-out: K0.5, dose-response curve for inhibition of hASIC3 current): 15.9 µM; Kd ([2]; transient current, COS cells, read-out: KD, inhibition of the transient hASIC3 current): 15.9 µM; Effect on spontaneous hASIC3 channel activity at pH 7.3 [3]: inhibited; also recorded: disappears; Effect on perception of acid taste [5]: inhibits the perception of acid taste
NC(=NCc1ccccc1)NC(=O)c1nc(Cl)c(N)nc1N [benzamil] | – | – | 10 | –
Nc1nc(N)c2nc(-c3ccccc3)c(N)nc2n1 [triamterene] | virtually not affected | – | – | Effect on the transient hASIC3 current ([2]; transient current, COS cells): inhibited
CCN(c1nc(N)c(C(=O)NC(=N)N)nc1Cl)C(C)C [EIPA, ethylisopropylamiloride] | – | inhibited | 10 | –
